# Patent US10364242B2, “Modulation of N-acylethanolamine-hydrolysing acid amidase (NAAA) for disease treatment” (FONDAZIONE ISTITUTO ITALIANO DI TECNOLOGIA, priority 2017, dated 2019)
# How the values were obtained:
# [1] = test system: sciatic nerve chronic constriction injury (CCI) model of persistent hyperalgesia and allodynia; experiment: Chronic Constriction Injury (CCI) of the sciatic nerve; type: in vivo; details: mice
# Procedure: Sciatic nerve ligations were performed according to Bennett and Xie (Pain. 1988, 33, 87-107). Adult male CD1 mice were anesthetized with 2-3% isoflurane, and the left sciatic nerve was exposed at mid-thigh level through a small incision and tied at two distinct sites (spaced at a 2-mm interval) with a silk thread. The wound was closed with a single muscle suture and skin clips, and dusted with streptomycin. In sham-operated animals, the nerve was exposed but not tied. All experiments were performed in a quiet room, and experimenters were blinded to the treatment protocol at the time of the test.
# Heat hyperalgesia was assessed by the method of Hargreaves et al. (Pain. 1988, 32, 77-88) measuring the latency to withdraw the hind paw from a focused beam of radiant heat (thermal intensity: infrared 3.0) applied to the plantar surface in a plantar test apparatus (Ugo Basile). The cutoff time was set at 30 s.
# Tactile allodynia (dynamic plantar esthesiometer; Ugo Basile) was assessed as described by La Rana et al. (Neuropharmacology 2008, 54,521-529) using the Von Frey dynamic plantar aesthesiometer (DPA). Animals were placed individually in a small testing arena (20 cm×18.5 cm×13 cm) with a wire mesh floor for 5 min. The DPA device was positioned beneath the animal, so that the filament was directly under the plantar surface of the paw to be tested. […] The DPA automatically records the force at which the paw is withdrawn and the withdrawal latency (latency and maximum force are directly related, because the device progressively increases force until withdrawal occurs). Mechanical hyperalgesia was recorded according to the Randall Sellito measurement.
# ARN16186 was then studied for its ability to alleviate established chronic pain condition (therapeutic effect). The compound was tested in the sciatic nerve chronic constriction injury (CCI) model of persistent hyperalgesia and allodynia in mice, a model that has both inflammatory and neuropathic pain components. ARN16186 (0.3, 1.0, 3.0 and 10 mg kg^−1, p.o.) was administered on day 7 and day 14, after left sciatic nerve ligation, and pain readouts were measured 2 h after dosing.
# h-NAAA [2] = target: T1, h-NAAA (Homo sapiens (Human), UniProt Q02083); experiment: Dialysis test (reversibility of inhibition); type: biochemical
# Target sequence in this assay (Q02083 29-359): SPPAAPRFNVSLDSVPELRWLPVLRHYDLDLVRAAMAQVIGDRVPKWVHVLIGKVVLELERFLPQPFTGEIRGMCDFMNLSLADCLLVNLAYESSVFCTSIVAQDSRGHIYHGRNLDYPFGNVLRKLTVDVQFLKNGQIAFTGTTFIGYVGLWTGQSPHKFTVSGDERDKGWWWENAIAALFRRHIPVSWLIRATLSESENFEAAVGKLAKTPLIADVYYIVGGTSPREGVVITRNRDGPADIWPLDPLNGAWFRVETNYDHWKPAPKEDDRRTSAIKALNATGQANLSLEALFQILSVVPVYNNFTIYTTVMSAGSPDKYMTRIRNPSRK
# [3] = target: h-FAAH1 (Fatty Acid Amide Hydrolase) (Homo sapiens (Human), UniProt O00519); experiment: Fluorogenic h-FAAH assay; type: biochemical; details: AMC arachidonoyl amide 800 nM, pH 7.4, 50 min pre-incubation
# Sequence of h-FAAH1 (Fatty Acid Amide Hydrolase) (O00519 whole entry): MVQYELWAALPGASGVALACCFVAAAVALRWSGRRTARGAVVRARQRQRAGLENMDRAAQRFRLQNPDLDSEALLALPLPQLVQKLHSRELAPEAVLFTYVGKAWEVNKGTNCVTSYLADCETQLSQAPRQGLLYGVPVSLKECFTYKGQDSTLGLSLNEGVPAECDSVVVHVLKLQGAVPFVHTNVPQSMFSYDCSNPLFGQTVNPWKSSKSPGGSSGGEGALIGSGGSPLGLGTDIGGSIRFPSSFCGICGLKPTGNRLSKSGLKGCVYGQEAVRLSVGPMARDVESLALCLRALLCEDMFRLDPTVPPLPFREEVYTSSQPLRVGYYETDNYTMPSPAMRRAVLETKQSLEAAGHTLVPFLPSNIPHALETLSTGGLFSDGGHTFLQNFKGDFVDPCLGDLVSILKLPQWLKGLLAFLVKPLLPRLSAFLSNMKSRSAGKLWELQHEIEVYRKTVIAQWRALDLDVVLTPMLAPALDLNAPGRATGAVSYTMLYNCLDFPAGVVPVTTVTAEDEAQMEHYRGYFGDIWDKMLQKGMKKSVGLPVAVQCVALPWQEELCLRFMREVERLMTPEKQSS
# Procedure: (§1) Human recombinant proteins were obtained from HEK-293 stable overexpressing NAAA, AC and FAAH cell lines, respectively. Cells were grown in Dulbecco's modified Eagle medium (DMEM) containing 10% FBS, 1% penicillin/streptomycin, 1% glutamine and 500 μg/mL G418. To obtain membrane preparation cells were scraped off with cold phosphate-buffered saline (PBS) and collected by centrifugation (300×g, 7 min, 4° C.). Cell pellets were stored at −80° C. until protein preparation.
# Preparation of membrane-enriched lysate (h-FAAH). […]
# The fluorescent assay to measure FAAH activity was performed in 96 wells black plates: 2.5 μg of human FAAH-1 membrane preparation were pre-incubated for 50 min at 37° C., in 190 μL of assay buffer (50 mM TrisHCl pH 7.4, 0.05% Fatty acid-free BSA) with 5 μL of inhibitor or 5 μL DMSO to measure FAAH total activity. […] The reaction was carried out for 45 minutes at 37° C. and fluorescence was measured with EnVision 2014 Multilabel Reader (PerkinElmer, Massachusetts, USA) (excitation wavelength 355 nm/emission wavelength 460 nm). The concentration causing half-maximal inhibition (IC50) was determined by nonlinear regression analysis of the Log [concentration]/response curves generated with mean replicate values using a four-parameter Hill equation curve fitting with GraphPad Prism 5 (GraphPad Software Inc., CA, USA).
# h-NAAA [4] = target: T1, h-NAAA; experiment: Fluorogenic h-NAAA assay; type: biochemical; details: PAMCA substrate 2.0 μM, pH 4.5, 30 min pre-incubation
# Procedure: as §1
# (§2) Preparation of enzyme-enriched lysate (h-NAAA and hAC). HEK-293 cells stably transfected with the human NAAA or human AC coding sequences were used as enzyme source. […] The suspension was finally ultracentrifuged at 105,000×g for 1 h at 4° C., supernatants were collected, protein concentration was measured and samples aliquoted and stored at −80° C. until use.
# The assay was run in 96-well microplates (Black OptiPlate™-96 F; PerkinElmer, Massachusetts, USA), in a total reaction volume of 200 μL. h-NAAA protein preparation (4.0 μg) was pre-incubated for 30 min with various concentrations of test compounds or vehicle control (DMSO 5%) in 100 mM citrate/phosphate buffer (pH 4.5) containing 3.0 mM DTT, 0.1% NP40 0.1%, 0.05% BSA, 150 mM NaCl. […] Fluorescence was measured with EnVision 2014 Multilabel Reader (PerkinElmer, Massachusetts, USA) using an excitation wavelength of 355 nm and emission 460 nm. […]
# Target sequence in this assay (Q02083 29-359): as the sequence (Q02083 29-359) above
# h-NAAA [5] = target: T1, h-NAAA; experiment: Inhibitors recovery assay (LC/MS); type: biochemical; details: LC/MS recovery study, 1 μM compound, 2 h at 37° C. with h-NAAA
# Procedure: FIG. 2 is a histogram resulting from the inhibitors recovering assay: ordinate: % recovery of compounds after h-NAAA incubation; ARN16186 and covalent inhibitor ARN15393 were incubated with NAAA (right bars) or buffer alone (left bars) and quantified in supernatant after protein precipitation;
# (§3) h-NAAA was produced and purified from h-NAAA overexpressing HEK293 cell line as described (ACS Med Chem Lett 2012, 3, 422-426). The purified enzyme was incubated in activation buffer [100 mM Sodium Phosphate/Sodium Citrate Buffer, 3 mM DL-dithiothreitol (DTT), 0.1% Triton X100, pH 4.5] for 3 h at 37° C. and the enzyme activation was checked by SDS-PAGE and Coomassie blue staining.
# h-NAAA (25 μL of a 2 μM solution) was incubated with ARN16186 or covalent inhibitor ARN15393 at the concentration of 1 μM in activation buffer, 2 h at 37° C. Samples were next precipitated with ten volumes of acetonitrile and centrifuged 10 min at 12000×g. The supernatants were recovered and analysed by LCMS/MS for the presence of the added compound. No-protein control samples (buffer only) were used as 100% recovery reference. Compound was detected and quantified using a Waters ACQUITY UPLC/MS TQD system consisting of a TQD (Triple Quadrupole Detector) mass spectrometer, equipped with an electrospray ionization interface. […] Compound was quantified monitoring its MRM peak area. […]
# Target sequence in this assay (Q02083 29-125): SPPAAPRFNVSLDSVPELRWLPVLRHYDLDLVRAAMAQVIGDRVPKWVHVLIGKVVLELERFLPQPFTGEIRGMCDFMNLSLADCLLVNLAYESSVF
# Target sequence in this assay (Q02083 126-359): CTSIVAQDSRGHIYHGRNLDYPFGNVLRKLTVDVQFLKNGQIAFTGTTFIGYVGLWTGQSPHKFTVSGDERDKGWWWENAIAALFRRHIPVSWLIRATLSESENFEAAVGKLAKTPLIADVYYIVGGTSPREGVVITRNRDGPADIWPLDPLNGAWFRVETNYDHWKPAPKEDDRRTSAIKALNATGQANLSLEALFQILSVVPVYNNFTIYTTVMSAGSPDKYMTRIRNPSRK
# h-NAAA [6] = target: T1, h-NAAA; experiment: Competitive Activity Based Protein Profiling (ABPP); type: biochemical; details: 20 μM, lysosomal extracts of h-NAAA overexpressing HEK293 cells, probe ARN14686
# Procedure: FIG. 1 is a picture showing the SDS-PAGE analysis resulting from the Competitive Activity Based Protein Profiling (ABPP): in summary, lysosomal extracts of h-NAAA overexpressing HEK293 cells were incubated with a vehicle (2% DMSO), ARN15393 (covalent h-NAAA inhibitor) or ARN16186, for 2 h before addition of probe ARN14686; a rhodamine fluorophore was inserted by a click chemistry. The arrow indicates NAAA;
# as §3
# Target sequence in this assay (Q02083 29-359): as the sequence (Q02083 29-359) above
# For competitive ABPP, 50 μL of lysosomal enrichment (0.5 mg/mL) from of h-NAAA-overexpressing HEK293 cell line were incubated 2 h at 37° C. with ARN16186 or covalent inhibitor ARN15393^(*^) at a final concentration of 20 μM (DMSO 2%). At the end of this pre-incubation time, the activity based probe undec-10-ynyl-N—[(S)-2-oxoazetidin-3-yl]carbamate (ARN14686) (ACS Chem. Biol. 2015, 10, 2057-2064) was added at 20 μM for 15 min or for 3.5 h at 37° C. […] Samples (10 μL) were analysed by SDS-PAGE and gel florescence was scanned at 532 nm wavelength (Fuji Film FLA-9000 instrument).
# h-AC (Acid Ceramidase) = h-AC (Acid Ceramidase) (Homo sapiens (Human), UniProt Q13510); experiment: Fluorogenic h-AC assay; type: biochemical; details: pH 4.5, 10 min pre-incubation
# Sequence of h-AC (Acid Ceramidase) (Q13510 22-395): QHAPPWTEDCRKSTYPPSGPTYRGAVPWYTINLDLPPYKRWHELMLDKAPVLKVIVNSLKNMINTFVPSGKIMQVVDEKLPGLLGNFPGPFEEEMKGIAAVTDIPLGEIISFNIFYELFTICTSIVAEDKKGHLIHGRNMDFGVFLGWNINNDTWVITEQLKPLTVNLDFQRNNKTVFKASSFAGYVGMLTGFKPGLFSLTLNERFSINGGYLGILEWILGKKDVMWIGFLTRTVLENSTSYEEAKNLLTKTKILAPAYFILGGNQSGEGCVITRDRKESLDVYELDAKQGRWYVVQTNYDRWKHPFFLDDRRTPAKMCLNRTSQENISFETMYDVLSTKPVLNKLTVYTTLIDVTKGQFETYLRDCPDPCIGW
# Procedure: as §1, §2
# The assay was run in 96-well microplates (Black OptiPlate™-96 F; PerkinElmer, Massachusetts, USA) in a total reaction volume of 100 μL. h-AC protein preparation (2.0 μg) was pre-incubated for 10 min with various concentrations of test compounds or vehicle control (DMSO 5%) in 25 mM sodium acetate buffer (pH 4.5). […] Fluorescence was measured with EnVision 2014 Multilabel Reader (PerkinElmer, Massachusetts, USA) using an excitation wavelength of 355 nm and emission 460 nm. […]
# [7] = single administration 0.3, 1.0, 3.0 and 10 mg kg^−1 p.o., day 7 and day 14 after ligation, 2 h after dosing, dose-dependent
compound,measurement,setting,value
"CCCCc1ccc(OC2CC3CCC(C2)N3S(=O)(=O)c2c(C)n[nH]c2C)cc1 (stereo not drawn) [ARN16186, (endo)-3-(4-butylphenoxy)-8-[(3,5-dimethyl-1H-pyrazol-4-yl)sulfonyl]-8-azabicyclo[3.2.1.]octane]",dose with full effect on hyperalgesia and allodynia,"[1]; p.o., single administration, readout 2 h after dosing",10 mg/kg
same,mechanical hyperalgesia,[1]; [7],reduce significantly
same,tactile allodynia,[1]; [7],reduce significantly
same,thermal hyperalgesia,[1]; [7],reduce significantly
same,recovery in a dialysis test,h-NAAA [2]; after 24 h,ca. 30%
same,mode of inhibition (dialysis test),h-NAAA [2]; after 24 h dialysis,partially reversible
same,IC50,[3],> 30 µM
same,IC50,h-NAAA [4],0.023 ± 0.004 µM
same,mechanism of inhibition,h-NAAA [5],non-covalent
same,mechanism of inhibition,h-NAAA [6],non-covalent
same,IC50,h-AC (Acid Ceramidase),> 30 µM
